# Experimental data reported in ChEMBL document CHEMBL1136427, “Unique spirocyclopiperazinium salt I: synthesis and structure-activity relationship of spirocyclopiperazinium salts as analgesics” (2003).
# Columns and labels:
# Format in all cases: functional
# [1] = system: Mus sp.; test: Sedative activity was evaluated in mice after s.c. administration of 20 mg/kg.; conditions: for inhibition in vivo at 20 mg/kg: Mus sp., sc; for Inhibition: 20 mg/kg
# [2] = system: Mus sp.; test: Analgesic activity was evaluated in mice after s.c. administration of 20 mg/kg.; conditions: for inhibition in vivo at 20 mg/kg: Mus sp., sc; for Inhibition: 20 mg/kg
# [3] = system: Mus sp.; test: Analgesic activity was evaluated in mice after s.c. administration of 10 mg/kg.; conditions: sc
# [4] = system: Mus sp.; test: Sedative activity was evaluated in mice after s.c. administration of 10 mg/kg.; conditions: sc
SMILES,inhibition in vivo at 20 mg/kg [1],inhibition in vivo at 20 mg/kg [2],inhibition in vivo at 10 mg/kg [3],Inhibition [1],Inhibition [2],inhibition in vivo at 10 mg/kg [4]
O=C(CCN1CC[N+]2(CCCC2)CC1)c1cccc([N+](=O)[O-])c1,0%,59%,–,–,–,–
Clc1cccc(/C=C/CN2CC[N+]3(CCCC3)CC2)c1,51%,42%,–,–,–,–
O=C(CCN1CC[N+]2(CCCC2)CC1)c1ccccc1,11%,25%,–,–,–,–
Clc1ccc(/C=C/CN2CC[N+]3(CCCC3)CC2)cc1,12%,19%,–,–,–,–
Clc1ccccc1/C=C/CN1CC[N+]2(CCCC2)CC1,59%,27%,–,–,–,–
OCCN1CC[N+]2(CCCC2)CC1,0%,10%,–,–,–,–
O=C(CCN1CC[N+]2(CCCC2)CC1)c1cccc(O)c1,13%,14%,–,–,–,–
O=C(CCN1CC[N+]2(CCCC2)CC1)c1ccc(O)cc1,85%,100%,77%,–,–,–
O=[N+]([O-])c1cccc(/C=C/CN2CC[N+]3(CCCC3)CC2)c1,12%,32%,–,–,–,–
O=C(CCN1CC[N+]2(CCCC2)CC1)c1ccc([N+](=O)[O-])cc1,35%,12%,–,–,–,–
OC(CCl)CN1CC[N+]2(CCCC2)CC1.[Br-] (stereo in doubt; 3),–,–,–,57%,64%,–
OC(CCl)CN1CC[N+]2(CCCC2)CC1.[Br-] (stereo in doubt; 7a),–,–,–,0%,0%,–
C(=C\c1ccccc1)/CN1CC[N+]2(CCCC2)CC1,33%,0%,–,–,–,–
O=C1CCC(=O)N1CCCN1CC[N+]2(CCCC2)CC1,10%,20%,–,–,–,–
C=CCN1CC[N+]2(CCCC2)CC1,0%,100%,45%,–,–,0%
O=[N+]([O-])c1ccc(/C=C/CN2CC[N+]3(CCCC3)CC2)cc1,10%,24%,–,–,–,–
C1CC[N+]2(C1)CCN(CCC1OCCO1)CC2,25%,36%,–,–,–,–
O=C(CCN1CC[N+]2(CCCC2)CC1)c1ccoc1,0%,15%,–,–,–,–
Cc1ccc(C(=O)CCN2CC[N+]3(CCCC3)CC2)cc1,14%,25%,–,–,–,–
c1ccc(OCCCCN2CC[N+]3(CCCC3)CC2)cc1,4%,9%,–,–,–,–
C=C(C)CN1CC[N+]2(CCCC2)CC1,0%,0%,–,–,–,–
O=C(CCN1CC[N+]2(CCCC2)CC1)c1ccsc1,3%,12%,–,–,–,–
CCN1CC[N+]2(CCCC2)CC1,0%,0%,–,–,–,–
